Consider 16 compounds from ChEMBL document CHEMBL1158540, “Heterocyclic cycloalkanol ethylamines as norepinephrine reuptake inhibitors” (Bioorg Med Chem Lett, 2010).

Data set [1] addresses T1, Sodium-dependent dopamine transporter (Homo sapiens, UniProt Q01959). Description: biochemical.
Description: Displacement of [3H]WIN-35428 form human DAT expressed in CHO cell membranes
The target in data set [2] is T2, Sodium-dependent noradrenaline transporter (Homo sapiens, UniProt P23975).
Data set [3] concerns the target T3, Sodium-dependent serotonin transporter (Homo sapiens, UniProt P31645). Description: Inhibition of human SERT expressed in human JAR cells at 1 uM. It is filed as cell-based.
Target sequence in this assay (P31645 whole entry, looked up): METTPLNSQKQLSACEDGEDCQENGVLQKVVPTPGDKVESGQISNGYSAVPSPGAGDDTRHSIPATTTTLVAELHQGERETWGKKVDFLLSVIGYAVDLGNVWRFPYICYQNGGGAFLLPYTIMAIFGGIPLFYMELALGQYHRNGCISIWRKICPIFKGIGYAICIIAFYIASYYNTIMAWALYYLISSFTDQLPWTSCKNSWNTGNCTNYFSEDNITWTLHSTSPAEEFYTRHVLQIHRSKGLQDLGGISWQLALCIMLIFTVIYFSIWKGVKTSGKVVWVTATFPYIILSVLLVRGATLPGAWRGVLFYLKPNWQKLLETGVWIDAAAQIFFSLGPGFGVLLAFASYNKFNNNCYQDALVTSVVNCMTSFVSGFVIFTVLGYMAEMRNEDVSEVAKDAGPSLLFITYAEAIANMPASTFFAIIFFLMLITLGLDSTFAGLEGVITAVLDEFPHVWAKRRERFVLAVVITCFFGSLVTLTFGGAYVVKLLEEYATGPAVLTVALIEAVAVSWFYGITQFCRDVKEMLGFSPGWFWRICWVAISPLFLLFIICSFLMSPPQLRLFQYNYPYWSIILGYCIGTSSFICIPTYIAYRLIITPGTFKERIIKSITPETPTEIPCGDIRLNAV
Data set [4] addresses T2, Sodium-dependent noradrenaline transporter. Nature of the data set: Inhibition of human NET transfected in MDCK-Net6 cells at 1 uM. Type of data set: cell-based.
Data set [5] concerns the target T1, Sodium-dependent dopamine transporter. Description: Inhibition of [3H]WIN-35428 binding to human DAT expressed in CHO membranes at 1000 nM. It is filed as cell membranes.
The subject of data set [6] is Rattus norvegicus. Nature of the data set: Effect on temperature homeostasis in telemetric ovariectomy-induced thermoregulatory dysfunction rat model assessed as mean reduction of tail skin temperature from baseline at 30 mg/kg, po after 3 hrs. It is filed as functional.
Data set [7] concerns the target T3, Sodium-dependent serotonin transporter. Type of data set: cell-based, JAR.
Target sequence in this assay (P31645 whole entry): as the sequence (P31645 whole entry, looked up) above
For data set [8], the system named is Rattus norvegicus. Description: Effect on temperature homeostasis in telemetric ovariectomy-induced thermoregulatory dysfunction rat model assessed as maximum reduction of tail skin temperature from baseline at 30 mg/kg, sc fter 6.5 hrs. It is filed as functional. The note with it: route subcutaneous.
In data set [9] the test system is Rattus norvegicus. Description: Effect on temperature homeostasis in telemetric ovariectomy-induced thermoregulatory dysfunction rat model assessed as maximum reduction of tail skin temperature from baseline at 30 mg/kg, po after 3 hrs. It is filed as functional.
Data set [10] can be described thus: Half life in rat microsomes. It is filed as ADME, Microsome.
Data set [11] has as its system Rattus norvegicus. Description: Effect on temperature homeostasis in telemetric ovariectomy-induced thermoregulatory dysfunction rat model assessed as mean reduction of tail skin temperature from baseline at 30 mg/kg, sc after 6.5 hrs. Type of data set: functional. Conditions: route subcutaneous.
The subject of data set [12] is Rattus norvegicus. Description: Effect on temperature homeostasis in telemetric ovariectomy-induced thermoregulatory dysfunction rat model assessed as maximum reduction of tail skin temperature from baseline at 30 mg/kg, ip fter 6 hrs. Type of data set: functional. Conditions: route intraperitoneal.
In data set [13] the test system is Rattus norvegicus. Nature of the data set: Effect on temperature homeostasis in telemetric ovariectomy-induced thermoregulatory dysfunction rat model assessed as mean reduction of tail skin temperature from baseline at 30 mg/kg, ip after 6 hrs. Type of data set: functional. The note with it: route intraperitoneal.
Data set [14] has as its system Rattus norvegicus. Nature of the data set: Effect on temperature homeostasis in telemetric ovariectomy-induced thermoregulatory dysfunction rat model assessed as maximum reduction of tail skin temperature from baseline at 30 mg/kg, ip fter 5.5 hrs. It is filed as functional. Conditions: route intraperitoneal.
Data set [15] has as its system Rattus norvegicus. Nature of the data set: Effect on temperature homeostasis in telemetric ovariectomy-induced thermoregulatory dysfunction rat model assessed as mean reduction of tail skin temperature from baseline at 30 mg/kg, ip after 5.5 hrs. It is filed as functional. Conditions: route intraperitoneal.

Broadly, the IC50 is the concentration needed to halve the response being measured. Higher therefore signals lower potency. Broadly, the inhibition is the relative decrease from the control value, in per cent. Higher therefore signals a response far below the control. What is called half-life is the time in which the quantity being followed falls by half.

T1 sequence (Q01959 whole entry): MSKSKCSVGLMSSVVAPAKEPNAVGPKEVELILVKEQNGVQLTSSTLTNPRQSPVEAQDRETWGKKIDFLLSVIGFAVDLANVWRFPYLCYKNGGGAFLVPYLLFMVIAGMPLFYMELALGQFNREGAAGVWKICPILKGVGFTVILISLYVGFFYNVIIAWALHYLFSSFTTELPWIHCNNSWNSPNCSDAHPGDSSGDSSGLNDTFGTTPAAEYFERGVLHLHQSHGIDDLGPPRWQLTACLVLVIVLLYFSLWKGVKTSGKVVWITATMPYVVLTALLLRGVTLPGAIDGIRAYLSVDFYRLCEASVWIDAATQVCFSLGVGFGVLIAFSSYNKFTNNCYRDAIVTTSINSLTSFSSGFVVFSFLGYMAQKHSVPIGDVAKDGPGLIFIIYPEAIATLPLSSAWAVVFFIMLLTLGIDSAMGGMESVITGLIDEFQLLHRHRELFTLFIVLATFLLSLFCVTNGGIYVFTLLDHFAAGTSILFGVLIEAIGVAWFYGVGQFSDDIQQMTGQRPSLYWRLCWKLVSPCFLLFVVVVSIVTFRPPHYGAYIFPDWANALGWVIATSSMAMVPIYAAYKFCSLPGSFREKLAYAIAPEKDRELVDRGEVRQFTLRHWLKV
T2 sequence (P23975 whole entry): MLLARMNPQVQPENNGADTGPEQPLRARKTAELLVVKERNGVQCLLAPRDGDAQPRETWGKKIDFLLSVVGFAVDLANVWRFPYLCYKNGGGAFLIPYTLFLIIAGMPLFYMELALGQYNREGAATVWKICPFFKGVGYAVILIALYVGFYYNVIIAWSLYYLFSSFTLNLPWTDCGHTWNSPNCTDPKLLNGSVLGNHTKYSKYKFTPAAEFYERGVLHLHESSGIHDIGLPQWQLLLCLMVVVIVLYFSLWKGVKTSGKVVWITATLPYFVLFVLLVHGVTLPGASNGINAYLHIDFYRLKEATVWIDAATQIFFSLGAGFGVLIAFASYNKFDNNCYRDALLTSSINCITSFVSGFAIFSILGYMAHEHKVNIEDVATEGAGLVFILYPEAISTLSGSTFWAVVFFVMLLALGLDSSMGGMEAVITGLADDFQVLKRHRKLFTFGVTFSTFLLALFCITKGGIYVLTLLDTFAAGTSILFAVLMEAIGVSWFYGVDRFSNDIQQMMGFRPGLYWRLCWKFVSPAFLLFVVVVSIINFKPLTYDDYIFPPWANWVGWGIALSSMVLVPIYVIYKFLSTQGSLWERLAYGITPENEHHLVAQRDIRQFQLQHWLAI

For `CN1CCN(C[C@@H](c2cccc(Cl)c2)C2(N)CCCCC2)CC1`, the IC50 in [1] came to 30 nM; in data set [2] it was 576 nM. In [3], this compound registered an INH of 32 µM.
In the case of `OC1(C(CN2CCNCC2)c2cccs2)CCCCC1` (stereo not given), the INH in data set [4] came to 54 µM.
Regarding `OC1(C(CN2CCNCC2)c2csc3ccccc23)CCCCC1` (stereo not given), the values for the INH in data set [4] and in data set [3] were 82 µM and 48 µM, respectively. The compound also showed an IC50 in data set [2] of 255 nM. Further, the inhibition in data set [5] came out at 51%.
On to `OC1(C(CN2CCNCC2)c2ccc(Cl)s2)CCCCC1` (stereo not given), for which the INH in data set [4] amounted to 50.8 µM.
In [4], `CN1CCN(C[C@H](c2cccc(Cl)c2)C2(O)CCCCC2)CC1` had an INH of 92 µM. Besides, the half-maximal inhibitory concentration (IC50) is 175 nM in data set [1] and 30 nM in data set [2].
Regarding `OC1(C(CN2CCNCC2)c2cc3ccccc3s2)CCCCC1` (stereo not given), the INH in data set [4] came to 73 µM; in data set [3], 89 µM. Moreover, in [2], the IC50 stood at 550 nM. Besides, the inhibition in data set [5] was determined as 61%.
Take `CN1CCN(CC(c2cccc(Cl)c2)C2(O)CCCCC2)CC1` (stereo not given): the Activity in the data set with Rattus norvegicus [6] was -3.1 °C; in the data set with Rattus norvegicus [8], -3.5 °C; in the data set with Rattus norvegicus [9], -3.8 °C; in the data set with Rattus norvegicus [11] it was -2.6 °C. Further, the IC50 in data set [7] was more than 2000 nM; in data set [1] it was 247 nM; in data set [2], 56 nM. Further, the half-life in data set [10] is less than 1 min.
As to `CN1CCN(C[C@@H](c2csc(Cl)c2)C2(O)CCCCC2)CC1`, the INH in data set [4] was found to be 0 µM. For the same compound, the IC50 was more than 6000 nM in [1] and 18000 nM in [2].
`OC1(C(CN2CCNCC2)c2csc(Cl)c2)CCCCC1` (stereo not given): the INH in [4] came out at 86 µM. Also, the half-inhibitory concentration (IC50) in data set [2] is 100 nM. The compound further displayed an inhibition in data set [5] of 43%.
`CN1CCN(CC(c2csc(Cl)c2)C2(O)CCCCC2)CC1` (stereo not given) registered an INH in data set [4] of 88 µM. Moreover, the values for the IC50 in [1] and in data set [2] were 389 nM and 95 nM, respectively. Further, the Activity in the data set with Rattus norvegicus [12] was -4.2 °C; in the data set with Rattus norvegicus [13], -2.75 °C.
`Cn1cc(C(CN2CCNCC2)C2(O)CCCCC2)c2ccccc21` (stereo not given) came in with an INH in data set [4] of 32 µM.
For `OC1(C(CN2CCNCC2)c2cc(Cl)sc2Cl)CCCCC1` (stereo not given), the INH was 94 µM in [4] and 12.2 µM in [3]. Moreover, the IC50 in data set [2] was 225 nM.
Turning to `CN1CCN(C[C@H](c2csc(Cl)c2)C2(O)CCCCC2)CC1`, the INH in data set [4] turned out to be 91 µM. In addition, the Activity is -4.6 °C in the data set with Rattus norvegicus [14] and -3.3 °C with Rattus norvegicus [15]. For the same compound, the 50% inhibitory concentration (IC50) in data set [1] was found to be 212 nM; in data set [2] it was 57 nM.
For the compound `OC1(C(CN2CCNCC2)c2c[nH]c3ccccc23)CCCCC1` (stereo not given), the INH in data set [4] is 21 µM; in data set [3] it was 90 µM.
As for `OC1(C(CN2CCNCC2)c2cnc3ccccc3c2)CCCCC1` (stereo not given), the INH in data set [4] is 19 µM.
Turning to `OC1(C(CN2CCNCC2)c2ccsc2Cl)CCCCC1` (stereo not given), the values for the INH in data set [4] and in [3] were 55 µM and 34 µM, respectively. This compound also had an IC50 in [2] of 720 nM.
